According to patent publication US8318723B2, “Pyrazine compounds, their use and methods of preparation” (Boehringer Ingelheim International GmbH, priority 2006, dated 2012):

Molecular target: PIM-2 (Homo sapiens, UniProt Q9P1W9)
Test: PIM-2 assay, single-concentration screen (luciferase-luciferin ATP depletion)
Type: biochemical
Details: percent of control at 3 μg/mL final assay concentration, 1 μM ATP, 5 μM peptide substrate, 60 minutes
Method: The activity of PIM-2 is measured using luciferase-luciferin based ATP detection reagent to quantify ATP depletion resulting from kinase-catalyzed phosphoryl transfer to a peptide substrate. The screen utilizes the Zymark Allegro UHTS system to dispense reagents, buffers and test compounds. To Greiner 384-well, white Lumitrac-200 plates, 20 μL/well of 20 nM PIM-2 (10 nM final assay concentration) in assay buffer (25 mM HEPES, pH 7.5, 10 mM MgCl2, 50 mM KCl, 0.2% CHAPS, 100 μM Na3VO4, 0.2% BSA and 200 μM TCEP) is delivered, followed by 10 μL/well of test compounds (3 μg/mL final assay concentration in 1% DMSO) that were previously dissolved in DMSO and diluted in assay buffer. A 10 μL volume of a solution containing 4 μM ATP (1 μM final assay concentration) and 20 μM peptide substrate (Biotin-[…], 5 μM final assay concentration) diluted in assay buffer is added to each well and the contents of the wells are mixed. […] The assay plates are read on an Analyst (Molecular Devices) in luminescence mode following additional 15 minutes of incubation at room temperature. Luminescence signals are converted to percent of control (POC) values using the formula: POC=(BCTRL−Signal)÷(BCTRL−PCTRL), where Signal is the test well signal, BCTRL is the average of background control well signals on the plate and PCTRL is the average of positive control well signals on the plate.

Chain of PIM-2 (Q9P1W9 whole entry): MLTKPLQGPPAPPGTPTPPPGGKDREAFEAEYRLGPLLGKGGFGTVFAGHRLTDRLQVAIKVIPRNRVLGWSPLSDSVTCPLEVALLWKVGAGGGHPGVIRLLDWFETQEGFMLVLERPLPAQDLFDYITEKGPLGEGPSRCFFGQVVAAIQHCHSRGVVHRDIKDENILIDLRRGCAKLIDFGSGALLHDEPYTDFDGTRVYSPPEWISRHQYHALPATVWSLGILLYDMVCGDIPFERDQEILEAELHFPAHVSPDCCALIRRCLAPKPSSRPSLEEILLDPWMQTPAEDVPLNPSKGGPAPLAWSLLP

In the case of CN1CCCN(c2cncc(-c3cccc(/C=C/C(=O)NCCO)c3)n2)CC1 [compound 45, (E)-N-(2-Hydroxy-ethyl)-3-{3-[6-(4-methyl-perhydro-1,4-diazepin-1-yl)-pyrazin-2-yl]-phenyl}-acrylamide], the “POC @ 3 μg/mL” value is reported as 63 POC @ 3 μg/mL.
